Data: article PMC3587609, “A Novel Cell-Penetrating Peptide Derived from Human Eosinophil Cationic Protein” (PLoS ONE, 2013)
No end group written: not given here.

What was measured:
Beas-2B cells [1] = assay: Cell viability assay (MTT)
Description: Beas-2B cells were grown in serum-free medium in the presence of ECP^32–41 at indicated concentrations for 24 h. (A) The cytotoxic effect of ECP^32–41 was measured by MTT assay. The cell viability of untreated cells was set to 100%. Cells treated with 0.1% Triton X-100 was used as a positive control. (B) The membrane disruption by ECP^32–41 was measured by LDH assay. LDH released from cells lysed with 0.1% Triton X-100 in medium was defined as 100% leakage and LDH released from untreated cells was set as 0% leakage.
Beas-2B cells were incubated with 10 µM eGFP or eGFP-ECP^32–41 at 37°C for 1 h. The cells were then washed with 500 µl PBS, trypsinized at 37°C for 15 min, suspended in 500 µl PBS, and subjected to flow cytometry. (B) Beas-2B cells were treated with the indicated concentrations of TAT^47–57, ECP^32–41, KLA, KLA-TAT^47–57 or KLA-ECP^32–41 at 37°C for 24 h, and their cytotoxic effects were determined by the MTT assay. Cytotoxic effects of (C) KLA-TAT^47–57 and (D) KLA-ECP^32–41, at the indicated concentrations, on Beas-2B, A549, Caco-2, and AGS cells were assessed by the MTT assay after incubation at 37°C for 24 h. The cell viability untreated cells was set to 100%. The result is expressed as the mean ± S.D., n = 3.
The effects of the peptides on cell viability were determined colourimetrically using 3-(4,5-dimethylthiazol-2-yl)-2,5-diphenyltetrazolium bromide (MTT) (US Biological). Cells (1.0×10^4/well) were seeded into the wells of 96-well plates and incubated overnight. Cell samples were then exposed to different concentrations of TAT^47–57, ECP^32–41, KLA, KLA-TAT^47–57 or KLA-ECP^32–41. After 24 h, 100 µl of 0.5 mg/ml MTT in medium was added into each well, and the cells were incubated at 37°C for 3 h. The incubation medium was removed, and the remaining purple crystal formazan was dissolved in dimethylsulphoxide. Cells treated with 0.1% Triton X-100 was used as a positive control for cell viability. A540 values were measured using a multiwall plate reader (Molecular Devices).

Caco-2 cells = assay: Cell viability assay (MTT); format: cell-based, human; details: 24 h
Source text: (§1) The cell viability untreated cells was set to 100%.

AGS cells = assay: Cell viability assay (MTT); format: cell-based, human; details: 24 h
Source text: as §1

Beas-2B cells [2] = assay: Cell-surface HS / CS after enzyme treatment (anti-HS or anti-CS antibody, flow cytometry); format: cell-based; details: 2 h, untreated cells 100%, n = 3; for decrease of the amount of HS on Beas-2B cell surfaces: 5 U/ml heparinase I or 2.4 U/ml heparinase III, anti-HS monoclonal antibody
Description: Figure 3 HS-dependent ECP^32–-41 internalization. […] (B) Samples of wild-type and mutant CHO cells were each incubated with 5 µM FITC-ECP^32–41 at 37°C for 1 h and then subjected to flow cytometry. (C) Samples of wild-type and mutant CHO cells were incubated with 5 µM FITC-ECP^32–41 at 37°C for 1 h., then washed twice with 1 ml PBS, and fixed for CLSM. Nuclei were stained with Hoechst 34850. Scale bar: 20 µm. (D) Beas-2B cells were treated with heparinase I, heparinase III, or chondroitinase ABC for 2 h prior to incubation with 5 µM FITC-ECP^32–41 at 37°C for 1 h. […] Untreated cells served as the controls. The fluorescence of cells treated with FITC-ECP^32–41 was set to 100%. […] (E) Beas-2B cells were treated with heparinase I, heparinase III, or chondroitinase ABC for 2 h. […] Untreated cells served as the control. The fluorescence of the untreated cells was set to 100%.
To verify that selective cell-surface polysaccharides had been enzymatically removed, the treated cells were subsequently incubated with anti-HS or anti-CS monoclonal antibodies. As expected, heparinase I and heparinase III had decreased the amount of HS on Beas-2B cell surfaces by 48% and 61%, respectively (Figure 3E, left panel), and chondroitinase ABC removed 72% of the cell-surface CS (Figure 3E, right panel). The HS that remained on Beas-2B cell surface accounted for the observed ECP^32–41 internalization into heparinase-treated cells. Conversely, even though 70% of the initial cell-surface CS had been removed, ECP^32–41 internalization was hardly affected–thus as concluded above, HS, rather than CS, is responsible for ECP^32–41 internalization.
Beas-2B cells (3.0×10^5/well) were incubated with RPMI 1640 medium overnight in six-well plates and then treated with 5 U/ml of heparinase I, 2.4 U/ml of heparinase III, or 10 U/ml of chondroitinase ABC (Sigma-Aldrich) at 37°C for 2 h. After a PBS wash, the cells were incubated with FITC-ECP^32–41 and assayed for internalization of the peptide by flow cytometry as described above.

For `N=C(N)NCCC[C@H](NC(=O)CN)C(=O)N[C@@H](CCCCN)C(=O)N[C@@H](CCCCN)C(=O)N[C@@H](CCCNC(=N)N)C(=O)N[C@@H](CCCNC(=N)N)C(=O)N[C@@H](CCC(N)=O)C(=O)N[C@@H](CCCNC(=N)N)C(=O)N[C@@H](CCCNC(=N)N)C(=O)N[C@@H](CCCNC(=N)N)C(=O)N1CCC[C@H]1C(=O)O` [TAT^47–57], the “cell viability (MTT) at 100 µM” value (Beas-2B cells [1]; Beas-2B, 100 µM peptide, 37°C, 24 h, n = 3) was “neither peptide affected cell viability”.

With KLAKLAKKLAKLAK the “cytotoxicity (MTT)” value (Beas-2B cells [1]) was “not cytotoxic”.

With “KLAKLAKKLAKLAKNYRWRCKNQN [KLA-ECP^32–41]” the “EC50 fold higher than that of KLA-TAT47–57” value (Caco-2 cells) was 1.6 fold and the “EC50 fold higher than that of KLA-TAT47–57” value (AGS cells) was 2.42 fold.

With chondroitinase ABC the “cell-surface CS removed” value (Beas-2B cells [2]; 10 U/ml chondroitinase ABC, anti-CS monoclonal antibody) was 72%.

For heparinase I, the “decrease of the amount of HS on Beas-2B cell surfaces” value (Beas-2B cells [2]) was 48%.

For heparinase III, the “decrease of the amount of HS on Beas-2B cell surfaces” value (Beas-2B cells [2]) was 61%.
